According to patent US20250206757A1 (GASHERBRUM BIO, INC., priority 2022, published 2025):

The compounds below were run against GLP-1 Receptor (Homo sapiens, UniProt P43220) (assay: GLP-1R agonist cAMP stimulation assay (HEK293/GLP1R/CRE-LUC cells, HTRF cAMP dynamic 2 kit)). Conditions: HEK293/CRE-Luc cell line stably expressing the GLP-1 Receptor; 30 min incubation at 37° C.
Format: cell-based
Summary of the method: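 HEK293 cells stably expressing GLP-1R with CRE-Luc, 1000 cells/well in DPBS with 0.5 mM IBMX and 0.10% BSA, exposed to half-log compound dilutions for 30 min at 37 °C. cAMP measured by HTRF (665/615 nm) after 1 h at room temperature.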

GLP-1 Receptor, sequence (P43220 24-463): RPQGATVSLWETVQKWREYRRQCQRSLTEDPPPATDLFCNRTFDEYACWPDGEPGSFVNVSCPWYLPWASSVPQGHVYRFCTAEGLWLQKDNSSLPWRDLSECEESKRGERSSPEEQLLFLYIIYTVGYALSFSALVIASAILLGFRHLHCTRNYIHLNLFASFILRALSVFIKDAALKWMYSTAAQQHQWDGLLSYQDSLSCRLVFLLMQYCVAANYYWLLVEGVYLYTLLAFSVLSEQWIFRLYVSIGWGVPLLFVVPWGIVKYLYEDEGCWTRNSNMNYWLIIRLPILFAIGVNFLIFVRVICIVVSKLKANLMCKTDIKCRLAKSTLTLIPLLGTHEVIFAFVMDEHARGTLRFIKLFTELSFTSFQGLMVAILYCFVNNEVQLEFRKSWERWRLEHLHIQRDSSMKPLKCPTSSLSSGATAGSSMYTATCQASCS

Structure (SMILES) | EC50 [nM]
COC(C)Cn1c(CN2CCc3cc(C(F)(F)F)c(OCc4ccc(Cl)cc4F)nc3C2)nc2cc(-c3nnc(C(F)(F)F)[nH]3)ncc21 (stereo in doubt) [Compound 81, 2-[(4-chloro-2-fluorophenyl)methoxy]-7-({3-[(2S)-2-methoxypropyl]-6-[5-(trifluoromethyl)-4H-1,2,4-triazol-3-yl]-3H-imidazo[4,5-c]pyridin-2-yl}methyl)-3-(trifluoromethyl)-5,6,7,8-tetrahydro-1,7-naphthyridine] | 1 to 300
Cc1cc(-c2nnc(C(F)(F)F)[nH]2)nnc1CN1CCc2cc(C(F)(F)F)c(OCc3ccc(Cl)cc3F)nc2C1 [Compound 13, 2-[(4-chloro-2-fluorophenyl)methoxy]-7-({4-methyl-6-[5-(trifluoromethyl)-4H-1,2,4-triazol-3-yl]pyridazin-3-yl}methyl)-3-(trifluoromethyl)-5,6,7,8-tetrahydro-1,7-naphthyridine] | > 300
N#CC1(Cc2cc(-c3nnc(C(F)(F)F)[nH]3)cnc2CN2CCc3cc(C(F)(F)F)c(OCc4ccc(Cl)cc4F)nc3C2)CC1 [Compound 10, 1-{[2-({2-[(4-chloro-2-fluorophenyl)methoxy]-3-(trifluoromethyl)-5,6,7,8-tetrahydro-1,7-naphthyridin-7-yl}methyl)-5-[5-(trifluoromethyl)-4H-1,2,4-triazol-3-yl]pyridin-3-yl]methyl}cyclopropane-1-carbonitrile] | 1 to 300
O=c1[nH]c(-c2cc3nc(CN4CCc5cc(C(F)(F)F)c(OCc6ccc(Cl)cc6F)nc5C4)n(C[C@@H]4CCO4)c3cc2F)no1 [Compound 38, 3-[2-({2-[(4-chloro-2-fluorophenyl)methoxy]-3-(trifluoromethyl)-5,6,7,8-tetrahydro-1,7-naphthyridin-7-yl}methyl)-6-fluoro-1-{[(2S)-oxetan-2-yl]methyl}-1H-1,3-benzodiazol-5-yl]-4,5-dihydro-1,2,4-oxadiazol-5-one] | 1 to 300
Fc1cc(Cl)ccc1COc1nc2c(cc1C(F)(F)F)CCN(Cc1nc3cc(-c4nnn[nH]4)cnc3n1C[C@@H]1CCO1)C2 [Compound 15, 2-[(4-chloro-2-fluorophenyl)methoxy]-7-[(3-{[(2S)-oxetan-2-yl]methyl}-6-(1H-1,2,3,4-tetrazol-5-yl)-3H-imidazo[4,5-b]pyridin-2-yl)methyl]-3-(trifluoromethyl)-5,6,7,8-tetrahydro-1,7-naphthyridine] | < 1
CC(c1nc2cc(-c3nnc(C#N)[nH]3)ncc2n1C[C@@H]1CCO1)N1CCc2cc(C(F)(F)F)c(OCc3c(F)cc(Cl)cc3F)nc2C1 (stereo partly drawn) [Compound 84, 5-[2-(1-{2-[(4-chloro-2,6-difluorophenyl)methoxy]-3-(trifluoromethyl)-5,6,7,8-tetrahydro-1,7-naphthyridin-7-yl}ethyl)-3-{1[(2S)-oxetan-2-yl]methyl}-3H-imidazo[4,5-c]pyridin-6-yl]-4H-1,2,4-triazole-3-carbonitrile] | < 1
Cc1cc(-c2nnc(C(F)(F)F)[nH]2)cnc1CN1CCc2cc(Cl)c(OCc3ccc(Cl)cc3F)nc2C1 [Compound 12, 3-chloro-2-[(4-chloro-2-fluorophenyl)methoxy]-7-({3-methyl-5-[5-(trifluoromethyl)-4H-1,2,4-triazol-3-yl]pyridin-2-yl}methyl)-5,6,7,8-tetrahydro-1,7-naphthyridine] | > 300

Results, then the compound that gave them:

EC50 [nM] | Structure (SMILES)
< 1 | NC(=O)c1nnc(-c2cc3nc(CN4CCc5cc(C(F)(F)F)c(OCc6c(F)cc(Cl)cc6F)nc5C4)n(C[C@@H]4CCO4)c3cn2)[nH]1 [Compound 44, 5-[2-({2-[(4-chloro-2,6-difluorophenyl)methoxy]-3-(trifluoromethyl)-5,6,7,8-tetrahydro-1,7-naphthyridin-7-yl}methyl)-3-{[(2S)-oxetan-2-yl]methyl}-3H-imidazo[4,5-c]pyridin-6-yl]-4H-1,2,4-triazole-3-carboxamide]
< 1 | O=C(O)c1cc2nc(CN3CCc4cc(C(F)(F)F)c(OCc5ccc(Cl)cc5F)nc4C3)n(C[C@@H]3CCO3)c2cn1 [Compound 26, 2-({2-[(4-chloro-2-fluorophenyl)methoxy]-3-(trifluoromethyl)-5,6,7,8-tetrahydro-1,7-naphthyridin-7-yl}methyl)-3-{[(2S)-oxetan-2-yl]methyl}-3H-imidazo[4,5-c]pyridine-6-carboxylic acid]
< 1 | Fc1cc(Cl)ccc1COc1nc2c(cc1C(F)(F)F)CCN(Cc1nc3cc(-c4nnc(C(F)(F)F)[nH]4)nnc3n1C[C@@H]1CCO1)C2 [Compound 6, 2-[(4-chloro-2-fluorophenyl)methoxy]-7-[(7-{[(2S)-oxetan-2-yl]methyl}-3-[5-(trifluoromethyl)-4H-1,2,4-triazol-3-yl]-7H-imidazo[4,5-c]pyridazin-6-yl)methyl]-3-(trifluoromethyl)-5,6,7,8-tetrahydro-1,7-naphthyridine]
< 1 | O=c1[nH]c(-c2cc3nc(CN4CCc5cc(C(F)(F)F)c(NCc6ccc(Cl)cc6F)nc5C4)n(C[C@@H]4CCO4)c3cn2)no1 [Compound 104, 3-{2-[(2-{[(4-chloro-2-fluorophenyl)methyl]amino}-3-(trifluoromethyl)-5,6,7,8-tetrahydro-1,7-naphthyridin-7-yl)methyl]-3-{[(2S)-oxetan-2-yl]methyl}-3H-imidazo[4,5-c]pyridin-6-yl}-4,5-dihydro-1,2,4-oxadiazol-5-one]
< 1 | N#Cc1nnc(-c2cc3nc(CN4CCc5cc(C(F)(F)F)c(OCc6ccc(Cl)cc6F)nc5C4)n(C[C@@H]4CCO4)c3cn2)[nH]1 [Compound 20, 5-[2-({2-[(4-chloro-2-fluorophenyl)methoxy]-3-(trifluoromethyl)-5,6,7,8-tetrahydro-1,7-naphthyridin-7-yl}methyl)-3-{[(2S)-oxetan-2-yl]methyl}-3H-imidazo[4,5-c]pyridin-6-yl]-4H-1,2,4-triazole-3-carbonitrile]
< 1 | Fc1cc(Cl)ccc1COc1nc2c(cc1C(F)(F)F)CCN(Cc1nc3cc(-c4nnc(S)[nH]4)ccc3n1C[C@@H]1CCO1)C2 [Compound 85, 5-[2-({2-[(4-chloro-2-fluorophenyl)methoxy]-3-(trifluoromethyl)-5,6,7,8-tetrahydro-1,7-naphthyridin-7-yl}methyl)-1-{[(2S)-oxetan-2-yl]methyl}-1H-1,3-benzodiazol-5-yl]-4H-1,2,4-triazole-3-thiol]
